From the CheMixHub viscosity set
Several values for one entry are separate records, joined by “and”; a condition that tells them apart may be missing. Equal values may be shown once.

Experiment: xn = mol fraction of the nth substance listed

N=C(N)NCCC[C@H](N)C(=O)[O-].[Na+] + O
viscosity [mPa·s], 101 kPa
Settings	x1 = 0.004484	x1 = 0.008927	x1 = 0.01333	x1 = 0.0177	x1 = 0.02202	x1 = 0.02631
293.15 K	1.199	1.453	1.745	2.107	2.501	2.956
303.15 K	0.963	1.149	1.361	1.615	1.907	2.248
313.15 K	0.78	0.925	1.087	1.278	1.493	1.744
323.15 K	0.645	0.759	0.881	1.033	1.201	1.384

NC(=O)CC[C@H](N)C(=O)O + O
viscosity, 101 kPa
Settings	x1 = 0.00045	x1 = 0.0009	x1 = 0.001	x1 = 0.00135	x1 = 0.001798	x1 = 0.002247	x1 = 0.002695	x1 = 0.003
298.15 K	0.897 mPa·s	–	–	0.909 mPa·s	0.915 mPa·s	–	0.9269 mPa·s	0.9238 mPa·s and 0.9238 mPa·s
303.15 K	0.8032 mPa·s	–	0.812 mPa·s	0.8135 mPa·s	0.8186 mPa·s	0.8237 mPa·s	0.8288 mPa·s	0.8262 mPa·s and 0.8262 mPa·s
308.15 K	–	0.7288 mPa·s	0.7318 mPa·s and 0.7318 mPa·s	–	–	–	0.7464 mPa·s	0.7442 mPa·s
313.15 K	–	0.6613 mPa·s	–	0.6651 mPa·s	0.6689 mPa·s	0.6727 mPa·s	0.6765 mPa·s	0.6746 mPa·s
318.15 K	0.6013 mPa·s	0.6048 mPa·s	0.6071 mPa·s	0.6082 mPa·s	0.6115 mPa·s	0.6148 mPa·s	0.6181 mPa·s	0.6166 mPa·s

O=C[C@H](O)[C@@H](O)[C@@H](O)[C@H](O)CO + O
viscosity
Settings	298.15 K	308.15 K
101 kPa, x1 = 0.0002	0.9056 mPa·s and 0.9056 mPa·s	–
101 kPa, x1 = 0.001	0.9592 mPa·s and 0.9592 mPa·s	–
101 kPa, x1 = 0.0018	0.9761 mPa·s and 0.9761 mPa·s	–
101 kPa, x1 = 0.002	0.9675 mPa·s and 0.9675 mPa·s	–
101 kPa, x1 = 0.003502	0.971 mPa·s	–
101 kPa, x1 = 0.00393	0.9552 mPa·s	0.814 mPa·s
101 kPa, x1 = 0.00634	1.043 mPa·s	0.8355 mPa·s
101 kPa, x1 = 0.01867	1.505 mPa·s	–
101.3 kPa, x1 = 0.02116	1.511 mPa·s	–

O=P([O-])(O)O.[K+] + O
viscosity [mPa·s], 101 kPa
Settings	x1 = 0.0018	x1 = 0.0054	x1 = 0.0089	x1 = 0.012	x1 = 0.016
298.15 K	0.9211	0.9772	1.037	1.11	1.186
303.15 K	0.8252	0.8757	0.9339	0.9884	1.062
308.15 K	0.7468	0.7881	0.837	0.8844	0.9335

O=S(=O)(O)O + O
100 kPa
Settings	viscosity [mPa·s]
303.15 K, x1 = 0.007147	0.8615
313.15 K, x1 = 0.0566	1.125

[Ce+3].[Cl-].[Cl-].[Cl-] + O
Settings	viscosity
298.15 K, 101.33 kPa, x1 = 0.06822	12.27 mPa·s and 12.27 mPa·s

CCOC=O + O=C1CCCO1
298.15 K, 101.33 kPa
Settings	viscosity [mPa·s]
x1 = 0.0501	1.571
x1 = 0.0994	1.446
x1 = 0.1504	1.333
x1 = 0.2017	1.23
x1 = 0.2492	1.143
x1 = 0.3001	1.057
x1 = 0.4017	0.895
x1 = 0.4509	0.845
x1 = 0.503	0.783
x1 = 0.5488	0.732
x1 = 0.6028	0.677
x1 = 0.7138	0.576
x1 = 0.7502	0.547
x1 = 0.7894	0.51
x1 = 0.8503	0.47
x1 = 0.9	0.439
x1 = 0.9501	0.412
